Target: human TYK2 (JH2domain-pseudokinase) (Homo sapiens (Human), UniProt P29597)
Assay: TYK2 JH2 Domain Binding Assay (KINOMEscan, DiscoveRx)
Conditions: 11-point dilution, duplicate
Experimental: Binding constants for compounds of the present invention against the JH2 domain were determined by the following protocol for a KINOMEscan® assay (DiscoveRx). A fusion protein of a partial length construct of human TYK2 (JH2domain-pseudokinase) (amino acids G556 to D888 based on reference sequence NP_003322.3) and the DNA binding domain of NFkB was expressed in transiently transfected HEK293 cells. From these HEK 293 cells, extracts were prepared in M-PER extraction buffer (Pierce) in the presence of Protease Inhibitor Cocktail Complete (Roche) and Phosphatase Inhibitor Cocktail Set II (Merck) per manufacturers' instructions. The TYK2 (JH2domain-pseudokinase) fusion protein was labeled with a chimeric double-stranded DNA tag containing the NFkB binding site (5′-GGGAATTCCC-3′) fused to an amplicon for qPCR readout, which was added directly to the expression extract (the final concentration of DNA-tag in the binding reaction is 0.1 nM).
Streptavidin-coated magnetic beads (Dynal M280) were treated with a biotinylated small molecule ligand for 30 minutes at room temperature to generate affinity resins the binding assays. The liganded beads were blocked with excess biotin and washed with blocking buffer (SeaBlock (Pierce), 1% BSA, 0.05% Tween 20, 1 mM DTT) to remove unbound ligand and to reduce nonspecific binding.
The binding reaction was assembled by combining 16 μl of DNA-tagged kinase extract, 3.8 μl liganded affinity beads, and 0.18 μl test compound (PBS/0.05% Tween 20/10 mM DTT/0.1% BSA/2 μg/ml sonicated salmon sperm DNA)]. Extracts were used directly in binding assays without any enzyme purification steps at a ≥10,000-fold overall stock dilution (final DNA-tagged enzyme concentration <0.1 nM). Extracts were loaded with DNA-tag and diluted into the binding reaction in a two step process. First extracts were diluted 1:100 in 1× binding buffer (PBS/0.05% Tween 20/10 mM DTT/0.1% BSA/2 μg/ml sonicated salmon sperm DNA) containing 10 nM DNA-tag. This dilution was allowed to equilibrate at room temperature for 15 minutes and then subsequently diluted 1:100 in 1× binding buffer. Test compounds were prepared as 111× stocks in 100% DMSO. Kds were determined using an 11-point 3-fold compound dilution series with three DMSO control points. All compounds for Kd measurements are distributed by acoustic transfer (non-contact dispensing) in 100% DMSO. The compounds were then diluted directly into the assays such that the final concentration of DMSO was 0.9%. All reactions performed in polypropylene 384-well plates. Each was a final volume of 0.02 mL. Assays were incubated with shaking for 1 hour at room temperature. Then the beads were pelleted and washed with wash buffer (1×PBS, 0.05% Tween 20) to remove displaced kinase and test compound. The washed based were re-suspended in elution buffer (1×PBS, 0.05% Tween 20, 0.5 μM non-biotinylated affinity ligand) and incubated at room temperature with shaking for 30 minutes. The kinase concentration in the eluates was measured by qPCR. qPCR reactions were assembled by adding 2.5 μL of kinase eluate to 7.5 μL of qPCR master mix containing 0.15 μM amplicon primers and 0.15 μM amplicon probe. The qPCR protocol consisted of a 10 minute hot start at 95° C., followed by 35 cycles of 95° C. for 15 seconds, 60° C. for 1 minute.
Test compounds were prepared as 111× stocks in 100% DMSO. Kds were determined using an 11-point 3-fold compound dilution series with three DMSO control points. All compounds for Kd measurements are distributed by acoustic transfer (non-contact dispensing) in 100% DMSO. The compounds were then diluted directly into the assays such that the final concentration of DMSO was 0.9%. The Kds were determined using a compound top concentration of 30,000 nM. Kd measurements were performed in duplicate.
Binding constants (Kds) were calculated with a standard dose-response curve using the Hill equation: […]
The Hill Slope was set to −1. […]

Sequence of human TYK2 (JH2domain-pseudokinase) (P29597 556-888): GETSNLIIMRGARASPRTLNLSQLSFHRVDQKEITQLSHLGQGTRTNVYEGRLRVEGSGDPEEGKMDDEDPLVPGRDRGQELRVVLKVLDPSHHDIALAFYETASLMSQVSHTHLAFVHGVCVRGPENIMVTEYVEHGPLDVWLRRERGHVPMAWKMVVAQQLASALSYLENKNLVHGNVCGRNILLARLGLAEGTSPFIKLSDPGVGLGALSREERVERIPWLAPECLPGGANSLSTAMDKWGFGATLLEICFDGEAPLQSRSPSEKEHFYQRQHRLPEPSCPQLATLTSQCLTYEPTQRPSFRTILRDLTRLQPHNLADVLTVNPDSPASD

SMILES | Kd [nM]
CN(c1cc(-c2cnn(C)c2)ccc1Nc1cc(NC(=O)[C@@H]2C[C@@H]2F)nc2[nH]c(C(F)F)nc12)S(C)(=O)=O (stereo in doubt) [Compound I-207] | 0.1 to 0.5
COc1c(Nc2cc(NC(=O)[C@@H]3C[C@@H]3F)nc3[nH]c(C(F)F)nc23)cccc1-c1ncn(C)n1 (stereo in doubt) [I-213, N-(2-(difluoromethyl)-7-((2-methoxy-3-(1-methyl-1H-1,2,4-triazol-3-yl)phenyl)amino)-3H-imidazo[4,5-b]pyridin-5-yl)-2-fluorocyclopropane-1-carboxamide] | 0.1 to 0.5
CN(c1cc(-c2cnn(C)c2)ccc1Nc1cc(NC(=O)[C@@H]2C[C@@H]2F)nc2[nH]c(C(F)F)nc12)S(C)(=O)=O (stereo in doubt) [I-235, (1S,2S)—N-(2-(difluoromethyl)-7-((4-(1-methyl-1H-pyrazol-4-yl)-2-(N-methylmethylsulfonamido)phenyl)amino)-3H-imidazo[4,5-b]pyridin-5-yl)-2-fluorocyclopropane-1-carboxamide] | < 0.1
Cc1nc2c(Nc3ccc(C4CCCOC4)cc3S(C)(=O)=O)cc(NC(=O)C3CC3)nc2[nH]1 (stereo in doubt) [I-254, (R)—N-(2-methyl-7-((2-(methylsulfonyl)-4-(tetrahydro-2H-pyran-3-yl)phenyl)amino)-3H-imidazo[4,5-b]pyridin-5-yl)cyclopropanecarboxamide] | 0.5 to 1
Cc1nc2c(Nc3ccc([C@@H]4CCCCO4)cc3S(C)(=O)=O)cc(NC(=O)[C@@H]3CC3(F)F)nc2[nH]1 (stereo in doubt) [I-324, 2,2-difluoro-N-(2-methyl-7-((2-(methylsulfonyl)-4-((R)-tetrahydro-2H-pyran-2-yl)phenyl)amino)-3H-imidazo[4,5-b]pyridin-5-yl)cyclopropane-1-carboxamide] | 1 to 10
COc1c(Nc2cc(NC(=O)C3C[C@@H]3F)nc3[nH]c(C)nc23)cccc1-c1ncn(C)n1 (stereo in doubt) [I-368, 2-fluoro-N-(7-((2-methoxy-3-(1-methyl-1H-1,2,4-triazol-3-yl)phenyl)amino)-2-methyl-3H-imidazo[4,5-b]pyridin-5-yl)cyclopropane-1-carboxamide] | 0.5 to 1
COc1c(Nc2cc(NC(=O)C3C[C@@H]3F)nc3[nH]c(C(F)F)nc23)cccc1-c1ncn(C)n1 (stereo in doubt) [I-374, N-(2-(difluoromethyl)-7-((2-methoxy-3-(1-methyl-1H-1,2,4-triazol-3-yl)phenyl)amino)-3H-imidazo[4,5-b]pyridin-5-yl)-2-fluorocyclopropane-1-carboxamide] | 1 to 10
CN=S(C)(=O)c1ccccc1Nc1cc(NC(=O)C2CC2)nc2[nH]c(C)nc12 (stereo in doubt) [I-548, (S)—N-(7-((2-(N,S-dimethylsulfonimidoyl)phenyl)amino)-2-methyl-3H-imidazo[4,5-b]pyridin-5-yl)cyclopropanecarboxamide] | 0.1 to 0.5
Cc1nc2c(Nc3ccc(C4CCCCO4)cc3S(C)(=O)=O)cc(Nc3cc4n(n3)CCOC4)nc2[nH]1 (stereo in doubt) [I-586, (R)—N5-(6,7-dihydro-4H-pyrazolo[5,1-c][1,4]oxazin-2-yl)-2-methyl-N7-(2-(methylsulfonyl)-4-(tetrahydro-2H-pyran-2-yl)phenyl)-3H-imidazo[4,5-b]pyridine-5,7-diamine] | 0.1 to 0.5
CS(=O)(=O)c1cc(C2COCCO2)ccc1Nc1cc(NC(=O)C2CC2)nc2[nH]c(C(F)F)nc12 (stereo in doubt) [I-613, (R)—N-(7-((4-(1,4-dioxan-2-yl)-2-(methylsulfonyl)phenyl)amino)-2-(difluoromethyl)-3H-imidazo[4,5-b]pyridin-5-yl)cyclopropanecarboxamide] | 0.1 to 0.5
CS(=O)(=O)c1cc(C2COCCO2)ccc1Nc1cc(NC(=O)C2CC2)nc2[nH]c(C(F)F)nc12 (stereo in doubt) [I-614, (S)—N-(7-((4-(1,4-dioxan-2-yl)-2-(methylsulfonyl)phenyl)amino)-2-(difluoromethyl)-3H-imidazo[4,5-b]pyridin-5-yl)cyclopropanecarboxamide] | 0.1 to 0.5
COc1c(Nc2cc(NC(=O)C3CC3)nc3[nH]cnc23)cccc1-c1ncn(C)n1 [I-1, N-(7-((2-methoxy-3-(1-methyl-1H-1,2,4-triazol-3-yl)phenyl)amino)-3H-imidazo[4,5-b]pyridin-5-yl)cyclopropanecarboxamide] | 0.1 to 0.5
COc1c(Nc2cc(Nc3cc(C)c(F)cn3)nc3[nH]cnc23)cccc1-c1ncn(C)n1 [I-2, N5-(5-fluoro-4-methylpyridin-2-yl)-N7-(2-methoxy-3-(1-methyl-1H-1,2,4-triazol-3-yl)phenyl)-3H-imidazo[4,5-b]pyridine-5,7-diamine] | 0.5 to 1
COc1c(Nc2cc(Nc3cc(C)nc(C)n3)nc3[nH]cnc23)cccc1-c1ncn(C)n1 [I-3, N5-(2,6-dimethylpyrimidin-4-yl)-N7-(2-methoxy-3-(1-methyl-1H-1,2,4-triazol-3-yl)phenyl)-3H-imidazo[4,5-b]pyridine-5,7-diamine] | 0.1 to 0.5
COc1c(Nc2cc(Nc3ccc(C)nn3)nc3[nH]cnc23)cccc1-c1ncn(C)n1 [I-4, N7-(2-methoxy-3-(1-methyl-1H-1,2,4-triazol-3-yl)phenyl)-N5-(6-methylpyridazin-3-yl)-3H-imidazo[4,5-b]pyridine-5,7-diamine] | 0.1 to 0.5
COc1c(Nc2cc(Nc3cc(CO)ccn3)nc3[nH]cnc23)cccc1-c1ncn(C)n1 [I-5, (2-((7-((2-methoxy-3-(1-methyl-1H-1,2,4-triazol-3-yl)phenyl)amino)-3H-imidazo[4,5-b]pyridin-5-yl)amino)pyridin-4-yl)MeOH] | 0.5 to 1
COc1c(Nc2cc(Nc3ccc(N4CCCCC4)cn3)nc3[nH]cnc23)cccc1-c1ncn(C)n1 [I-6, N7-(2-methoxy-3-(1-methyl-1H-1,2,4-triazol-3-yl)phenyl)-N5-(5-(piperidin-1-yl)pyridin-2-yl)-3H-imidazo[4,5-b]pyridine-5,7-diamine] | 0.5 to 1
COc1c(Nc2cc(Nc3ccc(N4CCOCC4)cn3)nc3[nH]cnc23)cccc1-c1ncn(C)n1 [I-7, N7-(2-methoxy-3-(1-methyl-1H-1,2,4-triazol-3-yl)phenyl)-N5-(5-morpholinopyridin-2-yl)-3H-imidazo[4,5-b]pyridine-5,7-diamine] | 0.1 to 0.5
COc1c(Nc2cc(Nc3ccn(C)n3)nc3[nH]cnc23)cccc1-c1ncn(C)n1 [I-8, N7-(2-methoxy-3-(1-methyl-1H-1,2,4-triazol-3-yl)phenyl)-N5-(1-methyl-1H-pyrazol-3-yl)-3H-imidazo[4,5-b]pyridine-5,7-diamine] | 1 to 10
COc1c(Nc2cc(NC(=O)C3CC3)nc3[nH]c(C4CC4)nc23)cccc1-c1ncn(C)n1 [I-9, N-(2-cyclopropyl-7-((2-methoxy-3-(1-methyl-1H-1,2,4-triazol-3-yl)phenyl)amino)-3H-imidazo[4,5-b]pyridin-5-yl)cyclopropanecarboxamide] | > 10
COc1c(Nc2cc(NC(=O)C3CC3)nc3[nH]c(CO)nc23)cccc1-c1ncn(C)n1 [I-10, N-(2-(hydroxymethyl)-7-((2-methoxy-3-(1-methyl-1H-1,2,4-triazol-3-yl)phenyl)amino)-3H-imidazo[4,5-b]pyridin-5-yl)cyclopropanecarboxamide] | 1 to 10
COc1nc2c(Nc3cccc(-c4ncn(C)n4)c3OC)cc(NC(=O)C3CC3)nc2[nH]1 [I-11] | 1 to 10
COc1c(Nc2cc(NC(=O)C3CC3)nc3[nH]c(C(F)F)nc23)cccc1-c1ncn(C)n1 [I-13, N-(2-(difluoromethyl)-7-((2-methoxy-3-(1-methyl-1H-1,2,4-triazol-3-yl)phenyl)amino)-3H-imidazo[4,5-b]pyridin-5-yl)cyclopropanecarboxamide] | 0.1 to 0.5
